Experimental findings from patent publication US7132252B2, “Methods for detecting the interaction of compounds with cytochrome P450 using optical molecular sensors” (Invitrogen Corporation, priority 1998, dated 2006) are described below.

One series addresses CYP2D6 (Homo sapiens, UniProt P10635). In words: Kinetic properties of fluorogenic substrates with CYP 2D6. The class given is biochemical. The following applies: for v (1.25 uM): turnover rate at 1.25 uM substrate; for v (10 uM): turnover rate at 10 uM substrate. An excerpt:
(§1) (respectively, MFC and MR).

Another series deals with T1, CYP 2B6 (Homo sapiens, UniProt P20813).
T1 sequence (P20813 1-491): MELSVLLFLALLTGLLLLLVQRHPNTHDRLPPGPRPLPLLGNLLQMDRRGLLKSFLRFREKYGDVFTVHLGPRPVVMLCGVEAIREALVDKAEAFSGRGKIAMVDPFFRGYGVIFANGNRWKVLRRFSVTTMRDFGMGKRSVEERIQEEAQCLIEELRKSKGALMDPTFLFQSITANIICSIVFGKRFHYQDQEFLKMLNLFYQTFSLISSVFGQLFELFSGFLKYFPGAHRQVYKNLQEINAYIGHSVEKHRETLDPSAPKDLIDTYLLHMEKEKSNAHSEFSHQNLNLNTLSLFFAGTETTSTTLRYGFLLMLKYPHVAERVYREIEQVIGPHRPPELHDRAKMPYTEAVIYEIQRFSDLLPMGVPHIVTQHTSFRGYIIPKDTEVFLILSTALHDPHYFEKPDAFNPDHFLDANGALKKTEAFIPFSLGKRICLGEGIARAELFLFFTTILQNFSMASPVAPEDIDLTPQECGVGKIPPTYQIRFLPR
In words: Kinetic properties of fluorogenic substrates with CYP 2B6. Format: biochemical. The following applies: for v (1.25 uM): turnover rate at 1.25 uM substrate; for v (1.25 uM) / v (10 uM) / Km / kcat: — = too low to quantify; for v (10 uM): turnover rate at 10 uM substrate.

The next series concerns the target CYP2C9 (Homo sapiens, UniProt P11712). The series can be described thus: Kinetic properties of fluorogenic substrates with CYP 2C9. Format: biochemical. The following applies: for v (1.25 uM): turnover rate at 1.25 uM substrate; for v (1.25 uM) / v (10 uM) / Km / kcat: — = too low to quantify; for v (10 uM): turnover rate at 10 uM substrate.
For the next series, the target named is T2, CYP 1A2 (Homo sapiens, UniProt P05177).
T2 sequence (P05177 1-516): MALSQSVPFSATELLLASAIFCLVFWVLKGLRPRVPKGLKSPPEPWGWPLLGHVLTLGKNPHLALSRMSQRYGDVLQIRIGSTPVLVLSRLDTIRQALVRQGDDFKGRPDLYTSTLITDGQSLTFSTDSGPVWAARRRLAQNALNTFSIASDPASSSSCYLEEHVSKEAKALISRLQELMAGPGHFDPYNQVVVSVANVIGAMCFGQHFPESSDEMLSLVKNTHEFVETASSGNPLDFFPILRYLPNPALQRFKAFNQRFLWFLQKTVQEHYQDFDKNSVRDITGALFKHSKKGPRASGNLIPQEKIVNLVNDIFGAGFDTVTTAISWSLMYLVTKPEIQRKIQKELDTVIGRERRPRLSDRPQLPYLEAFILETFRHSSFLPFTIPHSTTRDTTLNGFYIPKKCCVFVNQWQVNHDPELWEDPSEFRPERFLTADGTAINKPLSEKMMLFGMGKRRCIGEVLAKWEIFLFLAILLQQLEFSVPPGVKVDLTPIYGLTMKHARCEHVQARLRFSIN
The series can be described thus: Kinetic properties of fluorogenic substrates with CYP 1A2. Format: biochemical.

A further series has as its target CYP2C19 (Homo sapiens, UniProt P33261). In words: Kinetic properties of fluorogenic substrates with CYP 2C19. Format: biochemical. The settings on record: for v (1.25 uM): turnover rate at 1.25 uM substrate; for v (1.25 uM) / v (10 uM): — = too low to quantify; for v (10 uM): turnover rate at 10 uM substrate.
Series [1] deals with T3, CYP3A4 (Homo sapiens, UniProt P08684). The series can be described thus: Kinetic properties of fluorogenic substrates with CYP 3A4. Format: biochemical. The settings on record: for v (1.25 uM): turnover rate at 1.25 uM substrate; for v (1.25 uM) / v (10 uM): — = too low to quantify; for v (10 uM): turnover rate at 10 uM substrate.
T3 sequence (P08684 whole entry): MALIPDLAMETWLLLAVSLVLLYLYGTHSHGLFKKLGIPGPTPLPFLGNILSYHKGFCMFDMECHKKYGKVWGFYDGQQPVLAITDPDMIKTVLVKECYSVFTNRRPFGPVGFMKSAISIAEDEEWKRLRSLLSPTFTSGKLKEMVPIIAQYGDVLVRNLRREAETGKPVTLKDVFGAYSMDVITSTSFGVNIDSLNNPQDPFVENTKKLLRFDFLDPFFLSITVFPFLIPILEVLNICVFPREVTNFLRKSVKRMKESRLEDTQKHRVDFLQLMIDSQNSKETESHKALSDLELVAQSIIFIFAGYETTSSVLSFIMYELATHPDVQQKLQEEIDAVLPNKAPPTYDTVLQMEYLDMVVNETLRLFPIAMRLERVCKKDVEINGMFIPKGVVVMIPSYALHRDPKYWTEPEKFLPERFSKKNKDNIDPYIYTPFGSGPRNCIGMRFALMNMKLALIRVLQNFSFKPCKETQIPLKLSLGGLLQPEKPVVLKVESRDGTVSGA
Description: For further understanding these terms in the context of this invention, attention is directed to FIG. 4 and the analysis of FIG. 4.
as §1

Series [2] addresses T3, CYP3A4. The series can be described thus: in vitro. The settings on record: pH 8, % inhibition; for inhibition at 20 min, 10 µM: Condition A; for inhibition at 40 min, 10 µM: Condition B.

A word on the Km: it is the substrate concentration at which the rate is half of its maximum. What is called kcat is the maximal rate divided by the concentration of active sites. As a reminder, the inhibition is the drop in the measured response relative to a control, in per cent.

Values joined by “and” are separate entries in the source; they are usually repeats but may differ in a detail not shown here. Equal entries are not always repeated.

Sequence of CYP2D6 (P10635 whole entry): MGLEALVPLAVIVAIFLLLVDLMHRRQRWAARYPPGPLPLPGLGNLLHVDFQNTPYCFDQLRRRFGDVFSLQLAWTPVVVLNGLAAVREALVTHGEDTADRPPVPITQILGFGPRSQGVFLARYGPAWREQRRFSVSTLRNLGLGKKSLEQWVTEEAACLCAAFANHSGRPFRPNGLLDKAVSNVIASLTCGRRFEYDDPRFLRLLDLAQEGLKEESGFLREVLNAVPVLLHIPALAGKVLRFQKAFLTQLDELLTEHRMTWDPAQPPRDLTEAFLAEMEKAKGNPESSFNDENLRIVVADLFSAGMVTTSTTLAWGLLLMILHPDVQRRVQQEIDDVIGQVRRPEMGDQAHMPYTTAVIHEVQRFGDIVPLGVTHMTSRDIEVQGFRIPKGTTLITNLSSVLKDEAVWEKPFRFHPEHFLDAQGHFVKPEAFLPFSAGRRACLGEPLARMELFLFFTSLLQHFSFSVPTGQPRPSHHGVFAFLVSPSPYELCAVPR
Sequence of CYP2C9 (P11712 whole entry): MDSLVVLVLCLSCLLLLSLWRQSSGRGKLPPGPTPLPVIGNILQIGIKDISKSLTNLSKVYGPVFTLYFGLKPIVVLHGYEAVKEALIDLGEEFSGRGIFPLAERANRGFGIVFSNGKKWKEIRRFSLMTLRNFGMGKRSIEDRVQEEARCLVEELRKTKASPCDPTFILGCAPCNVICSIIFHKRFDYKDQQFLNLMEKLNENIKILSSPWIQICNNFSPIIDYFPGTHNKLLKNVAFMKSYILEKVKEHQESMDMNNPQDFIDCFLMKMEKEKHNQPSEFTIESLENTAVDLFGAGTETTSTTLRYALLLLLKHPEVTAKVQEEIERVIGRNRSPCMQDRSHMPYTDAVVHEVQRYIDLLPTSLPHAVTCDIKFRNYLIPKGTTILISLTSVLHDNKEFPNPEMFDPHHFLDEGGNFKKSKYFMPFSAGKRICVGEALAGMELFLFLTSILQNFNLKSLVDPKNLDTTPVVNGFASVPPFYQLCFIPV
Sequence of CYP2C19 (P33261 whole entry): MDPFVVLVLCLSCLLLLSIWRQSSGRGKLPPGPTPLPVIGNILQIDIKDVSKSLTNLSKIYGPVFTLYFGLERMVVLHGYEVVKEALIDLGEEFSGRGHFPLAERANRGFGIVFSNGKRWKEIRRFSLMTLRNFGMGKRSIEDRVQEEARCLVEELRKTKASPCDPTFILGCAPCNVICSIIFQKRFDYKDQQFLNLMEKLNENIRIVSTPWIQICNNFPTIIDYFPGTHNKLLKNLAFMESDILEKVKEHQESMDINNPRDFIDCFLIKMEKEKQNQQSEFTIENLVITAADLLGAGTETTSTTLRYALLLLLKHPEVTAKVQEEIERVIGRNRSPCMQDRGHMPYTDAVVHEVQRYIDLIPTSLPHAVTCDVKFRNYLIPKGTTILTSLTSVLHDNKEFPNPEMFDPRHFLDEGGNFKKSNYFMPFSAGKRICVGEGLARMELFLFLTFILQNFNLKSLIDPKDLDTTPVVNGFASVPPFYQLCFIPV

As for “7-Methoxy-4-trifluoromethylcoumarin [MFC, reference compound]”, the type of kinetics entry on CYP2D6 is “Michaelis-Menten”. On CYP2D6 (— = too low to quantify), the “v (1.25 uM)” value came out at 0.03 min⁻¹, the “v (10 uM)” value stood at 0.10 min⁻¹, the Km stood at 10 µM and the kcat turned out to be 0.005 s⁻¹. At CYP 2B6, the type of kinetics entry is given as “Michaelis-Menten”, the “v (1.25 uM)” value stood at 1.63 min⁻¹, the “v (10 uM)” value is 2.53 min⁻¹ and the Km was 1.4 µM. Moreover, at CYP 2B6, the kcat came to 0.0483 s⁻¹. Also, on CYP2C9, the type of kinetics entry is on record as “Michaelis-Menten”, the “v (1.25 uM)” value turned out to be 0.01 min⁻¹, the “v (10 uM)” value stood at 0.03 min⁻¹ and the Km was found to be 103 µM. Moreover, on CYP2C9, the kcat was found to be 0.0067 s⁻¹.
Take `CCOc1ccc2cc(C#N)c(=O)oc2c1` [3CEC, 3-Cyano-7-ethoxycoumarin, reference compound]: the type of kinetics entry on CYP 1A2 and on CYP2C19 was “Michaelis-Menten” in each case. Besides, the “v (1.25 uM)” value at CYP 1A2 (turnover rate at 1.25 uM substrate) stood at 1.73 min⁻¹; on CYP2C19 it was 0.05 min⁻¹. Also, the “v (10 uM)” value at CYP 1A2 (turnover rate at 10 uM substrate) is 12.55 min⁻¹; at CYP2C19, 0.34 min⁻¹.
With `COc1ccc2cc(C#N)c(=O)oc2c1` [3CMC, 3-cyano-7-methoxycoumarin, reference compound], on CYP2C19, the type of kinetics result is on record as “linear”, the “v (1.25 uM)” value was 0.01 min⁻¹ and the “v (10 uM)” value came to 0.07 min⁻¹. At CYP2C9, the type of kinetics entry was “linear”, the “v (1.25 uM)” value was 0.00 min⁻¹ and the “v (10 uM)” value amounted to 0.04 min⁻¹.
In the case of `N#Cc1cc2ccc(OCc3ccccc3)cc2oc1=O` [BCC, 7-Benzyloxy-3-cyanocoumarin, reference compound], at CYP 2B6, the type of kinetics result is “Michaelis-Menten”, the “v (1.25 uM)” value is 0.04 min⁻¹, the “v (10 uM)” value was 0.07 min⁻¹ and the catalytic constant (kcat) is 0.0017 s⁻¹. Also, the Km on CYP 2B6 (human, CYP 2B6 isozyme) was 1.3 µM. At CYP2C19, the type of kinetics result is “Michaelis-Menten”, the “v (1.25 uM)” value is 0.02 min⁻¹ and the “v (10 uM)” value is 0.06 min⁻¹. Also, on CYP2C9, the “v (1.25 uM)” value was 0.00 min⁻¹ and the “v (10 uM)” value was found to be 0.00 min⁻¹.
For `O=c1cc(C(F)(F)F)c2ccc(OCc3ccccc3)cc2o1` [BFC, 7-Benzyloxy-4-trifluoromethylcoumarin, reference compound], at CYP3A4 [1], the type of kinetics entry is on record as “linear”, the “v (1.25 uM)” value turned out to be 0.04 min⁻¹ and the “v (10 uM)” value turned out to be 0.81 min⁻¹.
In the case of `CC1(C)C2=C(Cl)C(=O)C(Cl)=CC2=Nc2ccc(OCOCc3ccccc3)cc21` [BOM-DDAO], on CYP3A4 [1], the “v (1.25 uM)” value is 0.4402 min⁻¹ and the “v (10 uM)” value was 4.2041 min⁻¹.
On the same counts, the results for `O=C(OCc1ccccc1)c1c2oc3cc(OCc4ccccc4)ccc3nc-2ccc1=O` [BRCBE] are 0.1992 min⁻¹ and 0.6241 min⁻¹.
With `CCN(CC)Cc1cc(=O)oc2cc(OC)ccc12` [DMMC], on CYP2C19, the “v (1.25 uM)” value was determined as 0.03 min⁻¹ and the “v (10 uM)” value amounted to 0.23 min⁻¹.
As for `O=C1NC(=O)C(c2ccccc2)(c2ccccc2)N1` [Diphenylhydantoin], the inhibition at 20 min, 10 µM at CYP3A4 [2] (substrate BOMCC) was -11%; against CYP3A4 [2] (substrate BOMR), -27%; against CYP3A4 [2] (substrate DBOMF), 21%. Besides, the inhibition at 40 min, 10 µM at CYP3A4 [2] (substrate BOMCC) amounted to 21%; against CYP3A4 [2] (substrate BOMR), 24%; against CYP3A4 [2] (substrate DBOMF), 5%.
As for `CCOCOc1ccc2nc3ccc(=O)cc-3oc2c1` [EOMR], at CYP3A4 [1], the type of kinetics entry is “Michaelis-Menten”, the “v (1.25 uM)” value came to 0.03 min⁻¹ and the “v (10 uM)” value amounted to 0.10 min⁻¹.
In the case of `CC(C)Oc1ccc2cc(C#N)c(=O)oc2c1` [IPCC], the entries for the “v (1.25 uM)” value on CYP2D6 (— = too low to quantify) and at CYP2C19 were 0.0076 min⁻¹ and 0.027 min⁻¹, respectively. Further, the figures for the “v (10 uM)” value at CYP2D6 (— = too low to quantify) and on CYP2C19 were 0.0378 min⁻¹ and 0.232 min⁻¹, respectively.
For `NNC(=O)c1ccncc1` [Isoniazid], the values for the inhibition at 20 min, 10 µM against CYP3A4 [2] (substrate BOMCC), against CYP3A4 [2] (substrate BOMR) and against CYP3A4 [2] (substrate DBOMF) were 59%, -8% and -9%, respectively. Further, the inhibition at 40 min, 10 µM turned out to be 48% on CYP3A4 [2] (substrate BOMCC), 30% on CYP3A4 [2] (substrate BOMR) and 3% against CYP3A4 [2] (substrate DBOMF).
With `COc1ccc(COc2ccc3nc4ccc(=O)cc-4oc3c2)cc1` [MOBR, Paramethoxybenzylresorufin], the type of kinetics entry is listed as “Michaelis-Menten” on CYP2D6, “Michaelis-Menten” on CYP 2B6, “not MMK” at CYP2C19 and “Michaelis-Menten” on CYP2C9. Further, the “v (1.25 uM)” value on CYP2D6 (— = too low to quantify) is 0.0185 min⁻¹ and 0.02 min⁻¹; at CYP 2B6 it was 0.08 min⁻¹; on CYP2C19 it was 1.26 min⁻¹; on CYP2C9 it was 0.02 min⁻¹. Also, the “v (10 uM)” value at CYP2D6 (— = too low to quantify) is 0.0409 min⁻¹ and 0.04 min⁻¹; at CYP 2B6 it was 0.10 min⁻¹; at CYP2C19 it was 0.69 min⁻¹; on CYP2C9, 0.02 min⁻¹. Further, at CYP 2B6 (human, CYP 2B6 isozyme), the Km stood at 0.01 µM. The kcat on CYP 2B6 was determined as 0.0067 s⁻¹.
Take `COCOc1ccc2cc(C#N)c(=O)oc2c1` [MOMCC]: on CYP2C19, the type of kinetics result is on record as “Michaelis-Menten”, the “v (1.25 uM)” value worked out at 0.14 min⁻¹ and the “v (10 uM)” value is 0.38 min⁻¹. For the same compound, on CYP2C9, the type of kinetics entry is “Michaelis-Menten”, the “v (1.25 uM)” value turned out to be 0.01 min⁻¹ and the “v (10 uM)” value is 0.07 min⁻¹.
On to `COCOc1ccc2c(C(F)(F)F)cc(=O)oc2c1` [MOMFC, 7-Methyloxymethyloxy-4-trifluorocoumarin], for which, on CYP 2B6, the type of kinetics result is reported as “notMichaelis-Menten”, the “v (1.25 uM)” value amounted to 0.54 min⁻¹ and the “v (10 uM)” value was 0.71 min⁻¹. In addition, at CYP2C9, the type of kinetics entry is recorded as “Michaelis-Menten”, the “v (1.25 uM)” value came out at 0.00 min⁻¹, the “v (10 uM)” value was 0.07 min⁻¹ and the Km is 14.9 µM. For the same compound, the kcat on CYP2C9 was 0.0017 s⁻¹.
Take `COCOc1ccc2nc3ccc(=O)cc-3oc2c1` [MOMR]: the “v (1.25 uM)” value at CYP3A4 [1] was 0.0083 min⁻¹; on CYP2D6 (— = too low to quantify) it was 0.03396 min⁻¹; at CYP2C19 it was 0.06 min⁻¹. Also, the “v (10 uM)” value at CYP3A4 [1] came out at 0.0338 min⁻¹; at CYP2D6 (— = too low to quantify), 0.2146 min⁻¹; at CYP2C19 it was 0.062 min⁻¹.
On to `O=C1CN(/N=C/c2ccc([N+](=O)[O-])o2)C(=O)N1` [Nitrofurantoin], for which the inhibition at 20 min, 10 µM against CYP3A4 [2] (substrate BOMCC) was 44%; at CYP3A4 [2] (substrate BOMR), -19%; against CYP3A4 [2] (substrate DBOMF), -9%. Also, the figures for the inhibition at 40 min, 10 µM against CYP3A4 [2] (substrate BOMCC), at CYP3A4 [2] (substrate BOMR) and against CYP3A4 [2] (substrate DBOMF) were 33%, 27% and -3%, respectively.
For `CCCCCCCCOCOc1ccc2cc(C#N)c(=O)oc2c1` [OOMCC], on CYP3A4 [1], the “v (1.25 uM)” value is 0.2274 min⁻¹ and the “v (10 uM)” value is 0.961 min⁻¹. In addition, on CYP2C19, the “v (1.25 uM)” value is 0.179 min⁻¹ and the “v (10 uM)” value is 1.043 min⁻¹.
`C=CCOc1ccccc1OCC(O)CNC(C)C` (stereo not shown) [Oxprenolol]: the figures for the inhibition at 20 min, 10 µM at CYP3A4 [2] (substrate BOMCC), against CYP3A4 [2] (substrate BOMR) and at CYP3A4 [2] (substrate DBOMF) were 7%, -5% and 1%, respectively. Besides, the inhibition at 40 min, 10 µM was 21% on CYP3A4 [2] (substrate BOMCC), 13% on CYP3A4 [2] (substrate BOMR) and 3% on CYP3A4 [2] (substrate DBOMF).
